Data reported in PMC3715121 (Journal of natural products, 2009).
Converted amounts (≈) assume the structure as drawn. Each block holds one compound with its values, some of them ahead of it.

How the values were obtained:
[1] = tested on: KB (human epidermoid carcinoma); experiment: Cytotoxicity assay, KB; type: cell-based; settings: 48 h, read-out: IC50 KB
[2] = tested on: P. falciparum Sierra Leone D6 (chloroquine-sensitive); experiment: Antimalarial/parasite LDH assay, D6 clone; type: cell-based; settings: Plasmodium falciparum, D6, 72 h, read-out: P. falciparum D6 IC50
[3] = tested on: Mycobacterium intracellulare ATCC 23068; experiment: Antimicrobial assay, M. intracellulare; type: cell-based; settings: for MIC: ATCC23068, read-out: MIC, M. intracellulare
RBC = experiment: Hemolytic activity; settings: from IC50 (RBC lysis)
[4] = tested on: P. berghei (NK-65 strain); experiment: In vivo antimalarial assay
[5] = tested on: SK-MEL (human malignant melanoma); experiment: Cytotoxicity assay, SK-MEL; type: cell-based; settings: 48 h, read-out: IC50 SK-MEL
[6] = tested on: methicillin-resistant Staphylococcus aureus ATCC 43300; experiment: Antimicrobial assay, MRSA; type: cell-based; settings: ATCC43300|MRSA; for MBC: read-out: MBC, MRSA; for MIC: read-out: MIC, MRSA
[7] = tested on: Candida albicans ATCC 90028; experiment: Antimicrobial assay, C. albicans; type: cell-based; settings: ATCC90028, read-out: IC50, C. albicans
[8] = tested on: L. donovani promastigotes; experiment: Antileishmanial assay; type: cell-based; settings: Leishmania donovani, 48 h, read-out: L. donovani IC50
[9] = tested on: Aspergillus fumigatus ATCC 90906; experiment: Antimicrobial assay, A. fumigatus; type: cell-based; settings: ATCC90906, read-out: IC50, A. fumigatus
[10] = tested on: Cryptococcus neoformans ATCC 90113; experiment: Antimicrobial assay, C. neoformans; type: cell-based

Compound: C[C@@H]1[C@H](O)[C@@H](C)/C=C/C=C/C=C/C=C/C=C/C=C/C=C/[C@H](O[C@@H]2O[C@H](C)[C@@H](O)[C@H](N)[C@@H]2O)C[C@@H]2O[C@](O)(C[C@@H](O)C[C@@H](O)[C@H](O)CC[C@@H](O)C[C@@H](O)CC(=O)O[C@H]1C)C[C@H](O)[C@H]2C(=O)O [Amphotericin B]
IC50 [1]: > 25 µg/mL

IC50 [2]: 0.017 µg/mL (≈ 0.0531 µM)
Compound: CCN(CC)CCCC(C)Nc1ccnc2cc(Cl)ccc12 (stereo not drawn) [Chloroquine, chloroquine, reference compound]

IC50 ([3]; ATCC23068, read-out: IC50, M. intracellulare): 0.25 µg/mL (≈ 0.754 µM)
Compound: O=C(O)c1cn(C2CC2)c2cc(N3CCNCC3)c(F)cc2c1=O [Ciprofloxacin, reference compound]

Compound: C[C@@H]1N[C@H](CCCCCCCCCCc2cc(CCCCCCCCCC[C@@H]3CC[C@H](O)[C@@H](C)N3)c3[n+](c2)CCC3)CC[C@H]1O.[Cl-] [Compound 1]
MIC [3]: 2.5 µg/mL | fold less toxic than amphotericin B in regard to hemolytic activity (RBC): > 4 fold | Cure (mice without parasitemia till day 28/total mice in group) ([4]; 1 mg/kg × 3 days, ip): 0/5 | Cure (mice without parasitemia till day 28/total mice in group) ([4]; 2 mg/kg × 3 days, ip): 0/5 | toxicity observed due to treatment ([4]; 1 and 2 mg/Kg/day for 3 days, ip, mice): no significant toxicity

Compound: C[C@@H]1N[C@H](CCCCCCCCCCC2=C[C@@H](CCCCCCCCCC[C@@H]3CC[C@@H](O)[C@H](C)N3)[C@@H]3CCCN3C2)CC[C@H]1O [Compound 2, 6,8-bis-[(2R,5R,6R)-5-hydroxy-6-methylpiperidin-2-yl]decyl-[8R,8aS]-6,7-dehydroindolizidine]
IC50 [5]: < 1.1 µg/mL | MIC [3]: 5 µg/mL (≈ 7.94 µM) | MBC [6]: 10 µg/mL (≈ 15.9 µM) | MIC [6]: 2.5 µg/mL (≈ 3.97 µM)

Compound: C[C@H]1N[C@@H](CCCCCCCCCCC2=C[C@@H](CCCCCCCCCC[C@@H]3CC[C@H](O)[C@@H](C)N3)[C@@H]3CCCN3C2)CC[C@H]1O [Compound 3, Isoprosopilosine]
IC50 [5]: < 1.1 µg/mL | MIC [3]: 5 µg/mL (≈ 7.94 µM) | IC50 [7]: > 20 µg/mL

Compound: C[C@@H]1N[C@H](CCCCCCCCCCc2cc(CCCCCCCCCC[C@H]3CC[C@@H](O)[C@@H](C)N3)c[n+]3c2CCC3)CC[C@H]1O [Compound 4, Isoprosopilosidine]
IC50 [2]: 0.042 µg/mL | IC50 [8]: 0.8 µg/mL | IC50 [7]: > 20 µg/mL

Compound: C[C@H]1N[C@@H](CCCCCCCCCCC2=C[C@@H](CCCCCCCCCC[C@H]3CC[C@@H](O)[C@@H](C)N3)[C@@H]3CCCN3C2)CC[C@H]1O [Compound 5, juliprosopine]
MBC ([3]; ATCC23068, read-out: MBC, M. intracellulare): 20 µg/mL (≈ 31.7 µM) | MIC [3]: 20 µg/mL (≈ 31.7 µM) | IC50 [7]: > 20 µg/mL

Compound: C[C@@H]1N[C@H](CCCCCCCCCCc2cc(CCCCCCCCCC[C@@H]3CC[C@@H](O)[C@H](C)N3)c3[n+](c2)CCC3)CC[C@H]1O.[Cl-] [Compound 6, Prosopilosidine dihydrochloride]
IC50 [9]: > 20 µg/mL | MBC [6]: 5 µg/mL

Compound: C[C@@H]1N[C@H](CCCCCCCCCCC2=C[C@@H](CCCCCCCCCC[C@@H]3CC[C@@H](O)[C@H](C)N3)[C@@H]3CCCN3C2)CC[C@H]1O.Cl.Cl [Compound 7, Prosopilosine dihydrochloride]
IC50 [8]: 3.1 µg/mL | IC50 [9]: > 20 µg/mL | MFC ([10]; ATCC90113, read-out: MFC, C. neoformans): 5 µg/mL | MIC ([10]; ATCC90113, read-out: MIC, C. neoformans): 5 µg/mL | MBC [6]: 5 µg/mL | MIC [6]: 5 µg/mL | IC50 [7]: > 20 µg/mL

Compound: C[C@H]1N[C@@H](CCCCCCCCCCC2=C[C@@H](CCCCCCCCCC[C@@H]3CC[C@H](O)[C@@H](C)N3)[C@@H]3CCCN3C2)CC[C@H]1O.Cl.Cl [Compound 8, Isoprosopilosine dihydrochloride]
MBC [6]: 5 µg/mL | MIC [6]: 5 µg/mL

Compound: CCO[C@H]1O[C@@H]2O[C@@]3(C)CC[C@H]4[C@H](C)CC[C@@H]([C@H]1C)[C@@]24OO3 [β-Arteether, β-arteether, reference compound]
Cure (mice without parasitemia till day 28/total mice in group) ([4]; 10 mg/kg × 3 days): 5/5
